Experimental data taken from patent US12642793B2, “Compositions and methods to treat gastrointestinal diseases and disorders” (CEDARS-SINAI MEDICAL CENTER, priority 2019, dated 2026).

Assays:
[1] = system: Gram-negative bacteria in patient duodenum aspirate; assay: Culture of patient duodenum aspirate on MacConkey agar aerobically; assay type: cell-based; details: for MacConkey agar (CFU/mL), Before Rifaximin: With DTT; for MacConkey agar (CFU/mL), Rifaximin treatment: aerobically
Description: (§1) Culture: blood agar and MacConkey aerobically, and blood agar anaerobically. […] Culture: MacConkey aerobically and blood agar anaerobically. […] Culture: MacConkey aerobically and blood agar anaerobically. […] Culture: MacConkey aerobically and blood agar anaerobically. […]

[2] = system: anaerobes in patient duodenum aspirate; assay: Culture of patient duodenum aspirate on blood agar; assay type: cell-based; details: for Blood agar (CFU/mL), Before Rifaximin: With DTT
Description: as §1

[3] = Experiment 1, rifaximin dose 0.01 g/mL

O[C@H](CS)[C@H](O)CS (racemic) [DTT, dithiothreitol]
MacConkey agar (CFU/mL), Before Rifaximin ([1]; Experiment 1): 4800 CFU/mL | MacConkey agar (CFU/mL), Before Rifaximin ([1]; Experiment 2): 338000 CFU/mL | MacConkey agar (CFU/mL), Before Rifaximin ([1]; Experiment 3): 20 CFU/mL | MacConkey agar (CFU/mL), Before Rifaximin ([1]; Experiment 4): 0 CFU/mL | Blood agar (CFU/mL), Before Rifaximin ([2]; Experiment 1): 72000 CFU/mL | Blood agar (CFU/mL), Before Rifaximin ([2]; Experiment 2): too high | Blood agar (CFU/mL), Before Rifaximin ([2]; Experiment 3): 60000 CFU/mL | Blood agar (CFU/mL), Before Rifaximin ([2]; Experiment 4): 1600000 CFU/mL

CO[C@H]1/C=C/O[C@@]2(C)Oc3c(C)c(O)c4c(O)c(c5c(nc6cc(C)ccn65)c4c3C2=O)NC(=O)/C(C)=C\C=C\[C@H](C)[C@H](O)[C@@H](C)[C@@H](O)[C@@H](C)[C@H](OC(C)=O)[C@@H]1C [Rifaximin, rifaximin]
MacConkey agar (CFU/mL), Rifaximin treatment [1, 3]: 4000 CFU/mL | MacConkey agar (CFU/mL), Rifaximin treatment ([1]; Experiment 2, rifaximin dose 0.1 g/mL): 343000 CFU/mL | MacConkey agar (CFU/mL), Rifaximin treatment ([1]; Experiment 3, rifaximin dose 0.01 g/mL): 40 CFU/mL | MacConkey agar (CFU/mL), Rifaximin treatment ([1]; Experiment 4, rifaximin dose 0.1 g/mL): 0 CFU/mL | Blood agar (CFU/mL), Rifaximin treatment [2, 3]: 6000 CFU/mL | Blood agar (CFU/mL), Rifaximin treatment ([2]; Experiment 2, rifaximin dose 0.1 g/mL, anaerobically): too high | Blood agar (CFU/mL), Rifaximin treatment ([2]; Experiment 3, rifaximin dose 0.01 g/mL, anaerobically): 800 CFU/mL | Blood agar (CFU/mL), Rifaximin treatment ([2]; Experiment 4, rifaximin dose 0.1 g/mL, anaerobically): 16000 CFU/mL
